According to PMC7527053, “Structure of Merkel Cell Polyomavirus Capsid and Interaction with Its Glycosaminoglycan Attachment Receptor” (Journal of Virology, 2020):

Key:
[1] = biological target: T1, HPV-16 VLPs (L1- and L2-containing) (Human papillomavirus 16, UniProt P03101); experiment: STD-NMR; type: binding; conditions: 10 uM VLP, 1 mM ligand, D2O, 283 K; buffer printed as PBS and as 150 mM NaCl, 20 mM KH2PO4 pH 7.4
T1 construct: L1/L2 VLPs produced by the MCPyV VLP procedure (293TT cells) without the ion chromatography step; plasmids pshell16 and p16L1L2; with Minor capsid protein L2

[2] = biological target: T2, MCPyV VLPs (VP1/VP2 virus-like particles) (Merkel cell polyomavirus, UniProt B0G0W3); experiment: STD-NMR; type: binding; conditions: 10 uM VLP, 1 mM ligand, 150 mM NaCl, 1 mM CaCl2, D2O, 283 K
T2 construct: untagged icosahedral VLPs of 72 VP1 pentamers; VP1-only VLPs behaved the same; with Minor capsid protein VP2

[3] = biological target: Merkel cell polyomavirus (MCPyV) major capsid protein VP1, assembled as virus-like particles (Merkel cell polyomavirus (MCC isolate 339)); experiment: crystal structure; filled VLPs (fVLPs), crystals grown in 0.1 M sodium citrate pH 4.6, 30% MPD, 0.2 M NaCl at 20°C; 3.5 Å
[4] = biological target: Merkel cell polyomavirus (MCPyV) major capsid protein VP1, assembled as virus-like particles (Merkel cell polyomavirus (MCC isolate 339)); experiment: nonreducing SDS-PAGE; purified VLPs incubated with 10 mM DTT and/or 50 mM EDTA with 2% SDS for 1 h at ambient temperature; capsid to pentamers

Compound: CO[C@H]1O[C@H](COS(=O)(=O)O)[C@@H](O[C@@H]2O[C@@H](C(=O)O)[C@@H](O[C@H]3O[C@H](COS(=O)(=O)O)[C@@H](O[C@@H]4O[C@H](C(=O)O)[C@@H](O[C@H]5O[C@H](COS(=O)(=O)O)[C@@H](O)[C@H](O)[C@H]5NS(=O)(=O)O)[C@H](O)[C@H]4O)[C@H](OS(=O)(=O)O)[C@H]3NS(=O)(=O)O)[C@H](O)[C@H]2OS(=O)(=O)O)[C@H](O)[C@H]1NS(=O)(=O)O [Arixtra, GlcNS6Sα1-4GlcAα1-4GlcNS3S6Sα1-4IdoA2Sα1-4GlcNS6Sα-OMet]
- STD-NMR [1]: the HPV-16 VLP Arixtra binding epitope is indistinguishable from the MCPyV VLP Arixtra epitope
- STD-NMR ([2]; filled (and empty) VLPs): we observed STD-NMR signals throughout the full length of the pentasaccharide

Compound: Merkel cell polyomavirus (MCPyV) major capsid protein VP1, assembled as virus-like particles (natural protein)
- stoichiometry N [3]: 360
- stoichiometry N [4]: 5

Compound: O=C(O)C1=C[C@H](O)[C@@H](OS(=O)(=O)O)[C@H](O[C@H]2[C@H](O)[C@@H](NS(=O)(=O)O)C(O)O[C@@H]2COS(=O)(=O)O)O1 (some centres unmarked) [HS-dp2, ΔUA2Sα1-4GlcNS6S]
- STD-NMR ([2]; VP1-only and VP1/VP2 VLPs): an interaction between MCPyV VLPs and dp2 was unambiguously observed
